In US11952346B2, “Modulators of mas-related G-protein receptor X2 and related products and methods” (Escient Pharmaceuticals, Inc., priority 2020, dated 2024):

These molecules were tested against T1, human MRGPRX2 (Homo sapiens, UniProt Q96LB1) (assay: MRGPRX2 antagonist activity, IP-One HTRF assay in CHO cells expressing human MRGPRX2 versus Cortistatin-14). Details: not given.
T1 construct: expressed in transfected cells
T1 sequence (Q96LB1 1-330): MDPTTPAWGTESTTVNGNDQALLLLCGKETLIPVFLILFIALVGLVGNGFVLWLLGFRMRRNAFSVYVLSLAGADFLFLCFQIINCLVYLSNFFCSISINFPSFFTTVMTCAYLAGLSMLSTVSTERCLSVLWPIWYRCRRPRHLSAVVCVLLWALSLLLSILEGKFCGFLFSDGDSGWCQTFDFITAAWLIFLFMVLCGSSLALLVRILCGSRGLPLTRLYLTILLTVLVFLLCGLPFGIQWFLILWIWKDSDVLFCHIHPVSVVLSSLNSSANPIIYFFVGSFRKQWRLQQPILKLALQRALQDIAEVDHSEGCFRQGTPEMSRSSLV
Format: cell-based
Experimental: CHO cells stably transfected to express human MRGPRX2 were maintained in an incubator at 37° C. with 5% CO2 and grown in F12 (HAM) media with 10% fetal bovine serum (FBS), 1% Glutamax, 1% penicillin/streptomycin, 800 μg/mL Geneticin (G418), and 300 μg/mL Hygromycin B. Cells were plated in a 384-well assay plate at 20,000 cells per well in 12 μL of Opti-MEM and kept in an incubator overnight. On the day of the assay, compounds solubilized at 10 mM in DMSO were added as a 10-point curve (30 uM final top concentration with 1:3 serial dilutions) using a Tecan D300E digital dispenser. Agonists were diluted in assay buffer (final concentrations of 5.7 mM Tris-HCl, 43 mM NaCl, 50 mM LiCI, pH=8) and 2 μL of the agonist Cortistatin-14 (CPC Scientific, catalog CORT-002) are added to each well. Final concentrations of agonists were […] Cortistatin-14. Final concentrations of DMSO were kept consistent across the plate. Plates were incubated in the dark for 1 hr at 37° C. and then for 1 hr at room temperature. IP-1 standards and HTRF detection reagents were added according to the IP-One—Gq Kit purchased from Cisbio (part number 621PAPEJ) and incubated in the dark for 1 hr at room temperature. The plate was read on a Molecular Devices SpectraMax iD5 plate reader. The HTRF ratio was calculated from the raw data and graphed using GraphPad Prism to calculate an IC50 value for each compound.
The activity ranges are denoted as follows: “+++++” denotes antagonist activity <100 nM; “++++” denotes antagonist activity between 100 and 500 nM; “+++” denotes activity between 501 and 1000 nM; “++” denotes activity between 1001 and 2500 nM; and “+” denotes activity >2500 nM.

| Compound | IC50 |
| --- | --- |
| N#Cc1ccc(N[C@H]2CC[C@@H](NC(=O)c3ccc4nccn4c3)CC2)cc1C(F)(F)F [1-20] | 100 to 500 nM |

Same assay, conditions: CHO cells stably expressing human MRGPRX2; versus 0.3 uM Cortistatin-14 agonist; IP-1 HTRF readout; read-out: MRGPR2 Antagonist Activity

| Compound | IC50 |
| --- | --- |
| CN(CC(F)F)c1ccc(C(=O)N[C@H]2CC[C@@H](Nc3ccc(C#N)c(C(F)(F)F)c3)CC2)cc1 [4-54] | < 100 nM |
| O=C(N[C@H]1CC[C@@H](Nc2nc(C(F)(F)F)nc3c2CCCC3)CC1)c1ccc(F)cc1 [1-11] | 1000 to 2500 nM |
| COc1ccc(C(=O)N[C@H]2CC[C@@H](Nc3cc(C(F)F)nc(C(F)(F)F)c3)CC2)cc1 [4-43] | 100 to 500 nM |
| N#Cc1ccc(N[C@H]2CC[C@@H](NC(=O)c3cnn(CC(F)(F)F)c3)CC2)cc1C(F)(F)F [Example 17, N-((1s,4s)-4-((4-cyano-3-(trifluoromethyl)phenyl)amino)cyclohexyl)-1-(2,2,2-trifluoroethyl)-1H-pyrazole-4-carboxamide] | < 100 nM |
| CN(C)c1cccc(C(=O)N[C@H]2CC[C@@H](Nc3ccc(C#N)c(C(F)(F)F)c3)CC2)c1 [1-16] | 100 to 500 nM |
| CNc1cc(C(=O)N[C@H]2CC[C@@H](Nc3ccc(C#N)c(C(F)(F)F)c3)CC2)ccn1 [4-66] | < 100 nM |
| CN(C)c1cccc(C(=O)N[C@H]2CC[C@@H](Nc3cc(C(F)(F)F)nc(C(F)(F)F)c3)CC2)c1 [Example 15, N-(1S,4S)-[4-[[2,6-bis(trifluoromethyl)-4-pyridyl]amino]cyclohexyl]-3-(dimethylamino)benzamide] | 100 to 500 nM |
| CN(C)c1nc(N[C@H]2CC[C@@H](NC(=O)c3ccc(F)cc3)CC2)cc(C(F)(F)F)n1 [1-8] | 501 to 1000 nM |
| CN(c1ccc(C(=O)N[C@H]2CC[C@@H](Nc3cc(C(F)(F)F)nc(C(F)(F)F)c3)CC2)cc1)S(C)(=O)=O [4-23] | 100 to 500 nM |
| N#Cc1ccc(N[C@H]2CC[C@@H](NC(=O)c3ccc(NCC(F)F)cc3)CC2)cc1C(F)(F)F [4-53] | < 100 nM |
| CNc1ccc(C(=O)N[C@H]2CC[C@@H](Nc3cc(C)c(C#N)c(C(F)(F)F)c3)CC2)cc1 [5-3] | < 100 nM |
| N#Cc1ccc(N[C@H]2CC[C@@H](NC(=O)c3cn[nH]c3Cl)CC2)cc1C(F)(F)F [4-45] | < 100 nM |
| N#Cc1ccc(N[C@H]2CC[C@@H](NC(=O)c3cn[nH]c3C3CC3)CC2)cc1C(F)(F)F [4-46] | < 100 nM |
| CCn1nccc1C(=O)N[C@H]1CC[C@@H](Nc2cc(C(F)(F)F)nc(C(F)(F)F)c2)CC1 [4-12] | 501 to 1000 nM |
| COc1ccc(C(=O)N[C@H]2CC[C@@H](Nc3cc(Nc4cccc(C)c4)nc(C(F)(F)F)c3)CC2)cc1 [Example 9, 4-methoxy-N-[4-[[2-(3-methylanilino)-6-(trifluoromethyl)-4-pyridyl]amino]cyclohexyl]benzamide] | 1000 to 2500 nM |
| Cc1cc(N[C@H]2CC[C@@H](NC(=O)c3ccnc(NC(C)C)c3)CC2)cc(C(F)(F)F)c1C#N [5-2] | < 100 nM |
| Cc1cccc2[nH]cc(C(=O)N[C@H]3CC[C@@H](Nc4ccc(C#N)c(C(F)(F)F)c4)CC3)c12 [4-62] | < 100 nM |
| Cc1cc2[nH]cnc2cc1C(=O)N[C@H]1CC[C@@H](Nc2cc(C(F)(F)F)nc(C(F)(F)F)c2)CC1 [4-8] | 100 to 500 nM |
| COc1ccc(C(=O)N[C@H]2CC[C@@H](Nc3ccc(F)c(C(F)(F)F)c3)CC2)cc1 [2-2] | 501 to 1000 nM |
| N=C(N)Nc1ccc(C(=O)N[C@H]2CC[C@@H](Nc3cc(C(F)(F)F)nc(C(F)(F)F)c3)CC2)cc1 (single isomer, unassigned) [4-55] | < 100 nM |

| Compound | IC50 |
| --- | --- |
| Cc1cc(N[C@H]2CC[C@@H](NC(=O)c3ccc(N(C)CC(F)F)cc3)CC2)cc(C(F)(F)F)c1C#N [5-7] | < 100 nM |
| COc1cc(N[C@H]2CC[C@@H](NC(=O)c3ccc(F)cc3)CC2)nc(C(F)(F)F)n1 [1-7] | 1000 to 2500 nM |
| O=C(N[C@H]1CC[C@@H](Nc2cc(C(F)(F)F)nc(N3CCCC3)n2)CC1)c1ccc(F)cc1 [1-9] | 1000 to 2500 nM |
| CN1CCCc2cc(C(=O)N[C@H]3CC[C@@H](Nc4cc(C(F)(F)F)nc(C(F)(F)F)c4)CC3)ccc21 [4-21] | 501 to 1000 nM |
| O=C(N[C@H]1CC[C@@H](Nc2cc(C(F)(F)F)cc(C(F)(F)F)c2)CC1)c1ccccc1 [Example 13, N-((1S,4S)-4-((3,5-bis(trifluoromethyl)phenyl)amino)cyclohexyl)benzamide] | > 2500 nM |
| N#Cc1ccc(N[C@H]2CC[C@@H](NC(=O)c3cccc4ncsc34)CC2)cc1C(F)(F)F [1-24] | 1000 to 2500 nM |
| CN1CCN(C(=O)N[C@H]2CC[C@@H](Nc3cc(C(F)(F)F)nc(C(F)(F)F)c3)CC2)CC1 [4-36] | 1000 to 2500 nM |
| COc1ccc(C(=O)NC2CCC(Nc3ccc(C#N)c(C(F)(F)F)c3)CC2)cc1 (stereo not shown) [Example 4, N-[4-[4-cyano-3-(trifluoromethyl)anilino]cyclohexyl]-4-methoxy-benzamide] | 100 to 500 nM |
| CN(C)c1ccc(C(=O)N[C@H]2CC[C@@H](Nc3cc(C(F)(F)F)nc(N(C)C)n3)CC2)cc1 [4-17] | 501 to 1000 nM |
| O=C(N[C@H]1CC[C@@H](Nc2cc(C(F)(F)F)nc(C(F)(F)F)c2)CC1)c1ccc(F)cc1 [1-1] | 100 to 500 nM |
| CC(C#N)c1cccc(C(=O)N[C@H]2CC[C@@H](Nc3cc(C(F)(F)F)nc(C(F)(F)F)c3)CC2)c1 (stereo partly shown) [4-11] | 100 to 500 nM |
| CCNc1nc(N[C@H]2CC[C@@H](NC(=O)c3ccc(OC)cc3)CC2)cc(C(F)(F)F)n1 [Example 12, N-(1S,4S)-[4-[[2-(ethylamino)-6-(trifluoromethyl)pyrimidin-4-yl]amino]cyclohexyl]-4-methoxy-benzamide] | > 2500 nM |
| N#Cc1ccc(N[C@H]2CC[C@@H](NC(=O)c3ccc4[nH]ncc4c3)CC2)cc1C(F)(F)F [4-50] | < 100 nM |
| O=C(N[C@H]1CC[C@@H](Nc2cc(C(F)(F)F)nc(C(F)(F)F)c2)CC1)c1ccc(Cl)cc1Cl [4-32] | 501 to 1000 nM |
| CN1CCC(C(=O)N[C@H]2CC[C@@H](Nc3cc(C(F)(F)F)nc(C(F)(F)F)c3)CC2)C1 (stereo partly shown) [4-40] | 1000 to 2500 nM |
| O=C(N[C@H]1CC[C@@H](Nc2cc(C(F)(F)F)nc(C(F)(F)F)c2)CC1)c1nc2ccccc2[nH]1 [4-35] | 1000 to 2500 nM |
| Cc1cc2c(C(=O)N[C@H]3CC[C@@H](Nc4ccc(C#N)c(C(F)(F)F)c4)CC3)ccnc2[nH]1 [4-60] | < 100 nM |
| CN(C)c1nc(N[C@H]2CC[C@@H](NC(=O)c3cccc(C#N)c3)CC2)cc(C(F)(F)F)n1 [4-18] | 1000 to 2500 nM |
| CN1CCCc2c(C(=O)N[C@H]3CC[C@@H](Nc4cc(C(F)(F)F)nc(C(F)(F)F)c4)CC3)cccc21 [4-19] | 1000 to 2500 nM |
